The text below walks through data of paper PMC9611727, “Optimization of a Novel Mandelamide-Derived Pyrrolopyrimidine Series of PERK Inhibitors” (Pharmaceutics, 2022).

Positions count from the first letter of the chain named.

Experiment in all cases: scanMAX kinase panel
Common to all, as to format: binding

For experiment [1], the target named is T1, PIK3C2B (Homo sapiens, UniProt O00750).
T1 construct: purchased DiscoverX scanMAX
Particulars: read-out: % Control; for remaining binding at 1 µM: 1000 nM. From the text:
(§1) Supplemental Table S2. scanMAXSM Kinome Assay Results. Complete tabulated data of all 468 kinases from the panel, including
(§2) 403 wild-type and 65 mutant isoforms. […] Cmpd 11 and Cmpd 24

In experiment [2] the target is T2, FLT3(D835V) (Homo sapiens, UniProt P36888, D835V).
T2 construct: purchased DiscoverX scanMAX
T2 sequence (P36888 27-993 D835V): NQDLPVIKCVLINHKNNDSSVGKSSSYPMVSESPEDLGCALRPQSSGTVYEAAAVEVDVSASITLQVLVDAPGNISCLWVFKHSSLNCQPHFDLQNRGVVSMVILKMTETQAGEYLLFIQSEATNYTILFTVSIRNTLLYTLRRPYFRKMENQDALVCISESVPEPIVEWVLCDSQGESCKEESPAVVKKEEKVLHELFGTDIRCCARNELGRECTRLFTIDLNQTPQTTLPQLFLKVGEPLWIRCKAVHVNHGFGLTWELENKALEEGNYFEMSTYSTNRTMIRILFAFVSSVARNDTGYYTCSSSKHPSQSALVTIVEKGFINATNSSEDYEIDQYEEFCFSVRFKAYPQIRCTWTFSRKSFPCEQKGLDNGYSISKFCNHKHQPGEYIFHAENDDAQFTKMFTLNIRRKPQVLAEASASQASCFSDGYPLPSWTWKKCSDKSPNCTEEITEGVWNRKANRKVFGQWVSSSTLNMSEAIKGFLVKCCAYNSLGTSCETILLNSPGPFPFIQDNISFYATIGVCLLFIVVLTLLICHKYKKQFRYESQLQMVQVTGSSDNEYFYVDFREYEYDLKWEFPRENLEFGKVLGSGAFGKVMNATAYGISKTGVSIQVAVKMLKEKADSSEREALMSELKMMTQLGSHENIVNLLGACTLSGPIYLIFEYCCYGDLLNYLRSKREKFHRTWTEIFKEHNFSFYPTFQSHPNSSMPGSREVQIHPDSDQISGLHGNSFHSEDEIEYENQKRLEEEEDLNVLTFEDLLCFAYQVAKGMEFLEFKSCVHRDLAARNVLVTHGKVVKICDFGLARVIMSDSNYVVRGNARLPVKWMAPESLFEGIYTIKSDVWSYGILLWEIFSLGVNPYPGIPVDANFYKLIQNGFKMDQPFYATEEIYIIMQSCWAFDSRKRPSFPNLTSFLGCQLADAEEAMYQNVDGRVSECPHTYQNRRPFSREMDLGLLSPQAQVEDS
The conditions noted are these: read-out: % Control; for remaining binding at 1 µM: 1000 nM.
From the text: as §1, §2

The target of experiment [3] is T3, TRKA (Homo sapiens, UniProt P04629).
T3 construct: purchased DiscoverX (scanMAX panel)
Particulars: read-out: % Control; for remaining binding at 1 µM: 1000 nM.
From the text: as §1, §2

The test system of experiment [4] is FLT3(ITD,F691L).
From the text: as §1, §2

The target in experiment [5] is T4, FLT3(K663Q) (Homo sapiens, UniProt P36888, K663Q).
T4 construct: purchased DiscoverX scanMAX
T4 sequence (P36888 27-993 K663Q): T2 sequence (P36888 27-993 D835V) with K637Q, V809D
The conditions noted are these: read-out: % Control; for remaining binding at 1 µM: 1000 nM.
From the text: as §1, §2

For experiment [6], the target named is T5, KIT(V559D) (Homo sapiens, UniProt P10721, V559D).
T5 construct: purchased DiscoverX scanMAX
Particulars: read-out: % Control; for remaining binding at 1 µM: 1000 nM.
From the text: as §1, §2

Experiment [7] deals with T6, CAMK4 (Homo sapiens, UniProt Q16566).
T6 construct: purchased DiscoverX scanMAX
T6 sequence (Q16566 1-473): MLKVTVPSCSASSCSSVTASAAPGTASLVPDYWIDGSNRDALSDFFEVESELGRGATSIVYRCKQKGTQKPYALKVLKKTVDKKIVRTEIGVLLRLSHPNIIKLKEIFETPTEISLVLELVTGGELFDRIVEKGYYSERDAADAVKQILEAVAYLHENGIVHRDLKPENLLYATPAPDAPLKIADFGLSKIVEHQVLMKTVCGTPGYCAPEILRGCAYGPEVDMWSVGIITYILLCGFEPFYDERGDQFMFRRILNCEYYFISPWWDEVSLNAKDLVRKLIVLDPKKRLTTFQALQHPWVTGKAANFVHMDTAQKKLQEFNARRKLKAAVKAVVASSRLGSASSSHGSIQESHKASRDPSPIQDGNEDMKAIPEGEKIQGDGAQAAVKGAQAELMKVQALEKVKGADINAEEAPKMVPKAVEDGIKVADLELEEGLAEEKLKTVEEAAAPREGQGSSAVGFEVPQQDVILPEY
The conditions noted are these: read-out: % Control; for remaining binding at 1 µM: 1000 nM.
From the text: as §1, §2

The target of experiment [8] is T7, CDK11 (Homo sapiens, UniProt Q9BWU1).
T7 construct: purchased DiscoverX scanMAX
The conditions noted are these: read-out: % Control; for remaining binding at 1 µM: 1000 nM.
From the text: as §1, §2

The target in experiment [9] is T8, DDR1 (Homo sapiens, UniProt Q08345).
T8 construct: purchased DiscoverX scanMAX
Particulars: read-out: % Control; for remaining binding at 1 µM: 1000 nM.
From the text: as §1, §2

T7 sequence (Q9BWU1 whole entry): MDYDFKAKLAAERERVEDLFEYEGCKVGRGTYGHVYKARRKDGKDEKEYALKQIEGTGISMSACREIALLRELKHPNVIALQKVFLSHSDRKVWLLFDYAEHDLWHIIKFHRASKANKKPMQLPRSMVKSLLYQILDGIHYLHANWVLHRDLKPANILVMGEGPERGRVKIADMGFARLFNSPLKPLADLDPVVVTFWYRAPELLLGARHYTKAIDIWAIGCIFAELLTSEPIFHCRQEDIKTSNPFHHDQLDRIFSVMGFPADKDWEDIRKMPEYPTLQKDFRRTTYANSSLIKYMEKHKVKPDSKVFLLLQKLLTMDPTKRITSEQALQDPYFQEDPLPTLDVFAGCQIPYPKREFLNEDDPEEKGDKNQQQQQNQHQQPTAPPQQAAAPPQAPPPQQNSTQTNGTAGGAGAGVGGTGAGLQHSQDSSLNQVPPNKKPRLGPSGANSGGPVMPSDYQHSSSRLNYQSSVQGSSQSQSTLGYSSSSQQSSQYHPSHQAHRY
T1 sequence (O00750 whole entry): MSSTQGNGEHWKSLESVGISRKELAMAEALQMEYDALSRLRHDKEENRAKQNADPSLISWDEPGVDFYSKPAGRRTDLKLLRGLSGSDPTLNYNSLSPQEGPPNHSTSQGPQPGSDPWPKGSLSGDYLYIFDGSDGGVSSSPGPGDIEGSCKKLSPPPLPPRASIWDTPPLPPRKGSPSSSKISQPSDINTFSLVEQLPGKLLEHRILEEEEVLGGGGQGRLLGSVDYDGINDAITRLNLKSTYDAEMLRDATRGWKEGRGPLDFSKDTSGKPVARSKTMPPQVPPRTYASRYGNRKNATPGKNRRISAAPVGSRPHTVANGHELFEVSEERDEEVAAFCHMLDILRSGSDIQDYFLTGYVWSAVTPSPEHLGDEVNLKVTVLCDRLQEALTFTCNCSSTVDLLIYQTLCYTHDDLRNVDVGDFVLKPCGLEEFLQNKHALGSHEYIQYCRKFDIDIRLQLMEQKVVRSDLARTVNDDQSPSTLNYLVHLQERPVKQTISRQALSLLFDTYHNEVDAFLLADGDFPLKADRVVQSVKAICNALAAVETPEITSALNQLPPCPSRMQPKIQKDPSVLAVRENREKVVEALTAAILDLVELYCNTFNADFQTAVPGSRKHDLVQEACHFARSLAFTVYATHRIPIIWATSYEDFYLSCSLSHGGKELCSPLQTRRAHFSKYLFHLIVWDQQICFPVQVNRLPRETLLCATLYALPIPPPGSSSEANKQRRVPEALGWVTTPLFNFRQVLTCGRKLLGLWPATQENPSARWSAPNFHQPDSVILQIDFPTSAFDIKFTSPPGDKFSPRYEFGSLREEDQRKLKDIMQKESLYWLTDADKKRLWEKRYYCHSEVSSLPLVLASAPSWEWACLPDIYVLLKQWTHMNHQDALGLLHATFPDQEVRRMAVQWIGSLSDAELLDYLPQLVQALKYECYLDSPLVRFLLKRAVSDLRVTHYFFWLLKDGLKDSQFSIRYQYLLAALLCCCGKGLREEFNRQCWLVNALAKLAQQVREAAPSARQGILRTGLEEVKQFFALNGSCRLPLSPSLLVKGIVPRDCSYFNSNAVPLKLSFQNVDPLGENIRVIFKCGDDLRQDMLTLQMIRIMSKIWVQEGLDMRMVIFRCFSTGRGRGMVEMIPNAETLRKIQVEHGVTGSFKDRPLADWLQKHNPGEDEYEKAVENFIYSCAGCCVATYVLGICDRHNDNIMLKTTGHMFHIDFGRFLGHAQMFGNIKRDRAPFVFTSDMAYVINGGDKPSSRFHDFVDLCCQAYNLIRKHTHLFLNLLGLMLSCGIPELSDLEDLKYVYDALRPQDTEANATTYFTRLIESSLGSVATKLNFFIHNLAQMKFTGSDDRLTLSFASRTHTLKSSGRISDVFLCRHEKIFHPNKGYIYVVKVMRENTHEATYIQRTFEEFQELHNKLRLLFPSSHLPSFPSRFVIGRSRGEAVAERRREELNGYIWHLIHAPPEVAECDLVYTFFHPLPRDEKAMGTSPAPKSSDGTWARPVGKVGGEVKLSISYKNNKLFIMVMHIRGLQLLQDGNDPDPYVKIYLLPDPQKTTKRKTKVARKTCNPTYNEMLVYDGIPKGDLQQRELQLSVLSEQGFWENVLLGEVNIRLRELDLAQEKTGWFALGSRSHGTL
T3 sequence (P04629 33-796): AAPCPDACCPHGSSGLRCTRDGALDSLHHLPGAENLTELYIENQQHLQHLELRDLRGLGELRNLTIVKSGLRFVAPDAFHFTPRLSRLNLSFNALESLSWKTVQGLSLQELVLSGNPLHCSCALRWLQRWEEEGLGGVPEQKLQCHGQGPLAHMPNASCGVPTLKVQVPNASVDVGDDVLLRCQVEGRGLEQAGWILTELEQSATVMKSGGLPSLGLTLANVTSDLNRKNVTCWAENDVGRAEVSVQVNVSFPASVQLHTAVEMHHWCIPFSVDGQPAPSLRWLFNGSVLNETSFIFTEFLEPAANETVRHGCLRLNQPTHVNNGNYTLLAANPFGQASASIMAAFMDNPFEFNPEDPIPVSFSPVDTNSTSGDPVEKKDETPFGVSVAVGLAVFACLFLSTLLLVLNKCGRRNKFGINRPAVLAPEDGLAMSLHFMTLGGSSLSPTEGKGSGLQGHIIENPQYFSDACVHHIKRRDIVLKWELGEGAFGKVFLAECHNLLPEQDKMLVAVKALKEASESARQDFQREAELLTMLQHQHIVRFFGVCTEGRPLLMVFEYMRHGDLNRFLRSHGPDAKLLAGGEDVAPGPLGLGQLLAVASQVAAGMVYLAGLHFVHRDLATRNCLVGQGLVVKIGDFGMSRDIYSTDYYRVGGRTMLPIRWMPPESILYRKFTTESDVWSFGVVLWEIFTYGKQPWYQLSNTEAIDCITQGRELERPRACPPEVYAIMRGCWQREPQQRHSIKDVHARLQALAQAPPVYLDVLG
T5 sequence (P10721 26-976 V559D): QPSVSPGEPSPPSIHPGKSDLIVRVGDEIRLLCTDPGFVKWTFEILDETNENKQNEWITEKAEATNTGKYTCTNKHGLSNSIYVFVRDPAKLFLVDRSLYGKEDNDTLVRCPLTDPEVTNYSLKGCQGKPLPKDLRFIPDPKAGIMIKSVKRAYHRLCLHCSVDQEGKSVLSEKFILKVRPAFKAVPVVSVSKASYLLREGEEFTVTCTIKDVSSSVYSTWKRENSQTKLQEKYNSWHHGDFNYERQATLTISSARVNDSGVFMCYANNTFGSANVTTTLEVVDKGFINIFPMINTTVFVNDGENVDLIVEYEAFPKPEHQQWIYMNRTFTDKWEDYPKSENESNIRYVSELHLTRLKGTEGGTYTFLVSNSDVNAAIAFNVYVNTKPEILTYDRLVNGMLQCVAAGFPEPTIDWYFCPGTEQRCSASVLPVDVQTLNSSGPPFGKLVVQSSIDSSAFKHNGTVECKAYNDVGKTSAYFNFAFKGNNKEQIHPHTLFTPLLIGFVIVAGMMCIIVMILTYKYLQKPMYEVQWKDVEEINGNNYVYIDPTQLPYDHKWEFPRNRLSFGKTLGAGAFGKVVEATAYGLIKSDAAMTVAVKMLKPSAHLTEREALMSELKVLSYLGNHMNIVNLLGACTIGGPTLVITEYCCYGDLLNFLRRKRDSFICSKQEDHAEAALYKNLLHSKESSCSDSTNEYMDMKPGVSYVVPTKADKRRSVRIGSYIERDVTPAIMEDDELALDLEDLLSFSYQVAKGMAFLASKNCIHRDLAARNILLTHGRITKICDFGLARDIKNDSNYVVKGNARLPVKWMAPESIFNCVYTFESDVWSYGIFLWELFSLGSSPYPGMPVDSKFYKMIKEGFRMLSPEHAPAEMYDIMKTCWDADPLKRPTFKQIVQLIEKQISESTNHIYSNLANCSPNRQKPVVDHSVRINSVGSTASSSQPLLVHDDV
T8 sequence (Q08345 19-913): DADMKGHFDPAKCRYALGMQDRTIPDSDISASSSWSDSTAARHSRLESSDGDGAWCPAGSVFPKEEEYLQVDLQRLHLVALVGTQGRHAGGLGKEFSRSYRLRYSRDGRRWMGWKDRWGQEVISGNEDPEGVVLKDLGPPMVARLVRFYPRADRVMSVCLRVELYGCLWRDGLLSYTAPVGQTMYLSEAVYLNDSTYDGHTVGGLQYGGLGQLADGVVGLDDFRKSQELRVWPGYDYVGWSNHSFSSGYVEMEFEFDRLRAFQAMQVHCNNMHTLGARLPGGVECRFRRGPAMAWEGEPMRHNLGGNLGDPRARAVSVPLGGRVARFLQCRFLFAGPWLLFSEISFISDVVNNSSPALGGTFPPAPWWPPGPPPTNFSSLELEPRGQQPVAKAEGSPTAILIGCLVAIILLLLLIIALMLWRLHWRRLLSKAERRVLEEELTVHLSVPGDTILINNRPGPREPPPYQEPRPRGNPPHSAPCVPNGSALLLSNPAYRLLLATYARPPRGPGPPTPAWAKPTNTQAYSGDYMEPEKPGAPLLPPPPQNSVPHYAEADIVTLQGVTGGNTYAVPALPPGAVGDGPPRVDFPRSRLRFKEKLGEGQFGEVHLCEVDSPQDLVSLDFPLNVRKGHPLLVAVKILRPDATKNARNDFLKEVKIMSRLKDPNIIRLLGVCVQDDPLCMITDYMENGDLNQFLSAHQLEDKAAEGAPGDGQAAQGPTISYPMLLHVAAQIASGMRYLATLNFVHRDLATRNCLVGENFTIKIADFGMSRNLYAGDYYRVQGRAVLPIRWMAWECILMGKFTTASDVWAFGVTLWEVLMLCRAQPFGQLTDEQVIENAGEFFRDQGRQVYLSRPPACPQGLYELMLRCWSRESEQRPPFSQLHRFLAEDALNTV

In the case of `Cc1cc(NC(=O)[C@H](O)c2cccc(F)c2)ccc1-c1cn(C)c2ncnc(N)c12` [Compound 11, (R)-N-(4-(4-amino-7-methyl-7H-pyrrolo[2,3-d]pyrimidin-5-yl)-3-methylphenyl)-2-(3-fluorophenyl)-2-hydroxy acetamide], the remaining binding at 1 µM in experiment [1] stood at 27%; in experiment [2], 52%; in [3], 12%; in experiment [5], 26%; in experiment [6], 27%; in [7] it was 32%. The remaining binding at 1 µM is 1% in experiment [8] and 72% in experiment [9]. In addition, the “% Control” value in experiment [4] (1000 nM) amounted to 100%.
For `Cc1nc(N)c2c(-c3ccc(NC(=O)[C@H](O)c4cccc(F)c4)cc3C)cn(C)c2n1` [Compound 24], the remaining binding at 1 µM in [1] was 100%; in [2], 100%; in experiment [3], 67%; in [5], 83%; in [6], 72%; in experiment [7], 100%. In addition, the remaining binding at 1 µM in experiment [8] was found to be 89%; in experiment [9] it was 100%. The “% Control” value in [4] (1000 nM) is recorded as 63%.
For `Cc1nc(N)c2c(-c3ccc(NC(=O)[C@H](O)c4cccc(C(F)(F)F)c4)cc3C)cn(C)c2n1` [Compound 26], the remaining binding at 0.1 µM is 100% in experiment [1] (100 nM); 100% in experiment [2] (100 nM); 29% in [3] (100 nM); 51% in [5] (100 nM); 96% in experiment [6] (100 nM); 100% in experiment [7] (100 nM). Further, the remaining binding at 0.1 µM in experiment [8] (100 nM) is 89%; in [9] (100 nM) it was 100%. For the same compound, the remaining binding at 1 µM in experiment [1] came to 78%; in [2], 8.5%; in [3] it was 3.4%; in [5], 20%; in experiment [6], 0.45%; in experiment [7], 75%. Moreover, the remaining binding at 1 µM turned out to be 8.2% in experiment [8] and 29% in experiment [9]. Besides, the figures for the “% Control” value in [4] (100 nM) and in experiment [4] (1000 nM) were 41% and 42%, respectively.
